These results are taken from PMC8228121, “Super-Cationic Peptide Dendrimers—Synthesis and Evaluation as Antimicrobial Agents” (Antibiotics, 2021).

What all share (assay): microbe, parasite or virus in culture
One assay has as its system S. aureus ATCC 29213. It is filed as cell-based, Staphylococcus aureus. The note with it: ATCC 29213. As to the method: (§1) Clinical isolates of CRE, MRSA and VRE were obtained from Lancet Laboratories, Durban, South Africa, with approval BE394/15 from the Biomedical Research Ethical Committee of the University of KwaZulu-Natal. Five reference strains of bacteria, namely Escherichia coli ATCC 25922, Pseudomonas aeruginosa ATCC 27853, Enterococcus faecium ATCC 35667, Staphylococcus aureus ATCC 29213 and Bacillus subtilis ATCC 6051 were supplied by the American Type Culture Collection (ATCC).
(§2) MIC values were determined by the broth microdilution method and the significance of the values obtained was interpreted following the guidelines of the Clinical and Laboratory Standards for Antimicrobial Susceptibility Testing.. The effect of human serum on the antimicrobial effect of the molecules tested was determined in a similar way to the MIC method used above in a solution of 50% human serum plus Mueller–Hinton broth.

The subject of the next assay is B. subtilis ATCC 6051. It is filed as cell-based, Bacillus subtilis. The note with it: ATCC 6051. The procedure: as §1, §2
Another assay relates to E. faecium ATCC 35667. It is filed as cell-based, Enterococcus faecium. The note with it: ATCC 35667. The procedure: as §1, §2
The subject of another assay is E. coli ATCC 25822. It is filed as cell-based, Escherichia coli. The note with it: ATCC 25822. As to the method:
as §1, §2

Another assay concerns P. aeruginosa ATCC 27853. It is filed as cell-based, Pseudomonas aeruginosa. Particulars: ATCC 27853. The procedure:
as §1, §2

Assay [1] concerns MRSA (methicillin-resistant S. aureus) isolates. It is filed as cell-based. As to the method:
as §1, §2

Converted amounts (≈) assume the structure as drawn. Bridge positions count the residues as written; N and C are the ends. Side chains are listed from the residue outwards. Peptide text beside a SMILES is read from it. I, II: the chains in the order shown. * marks the point of attachment. Lauroyl = CCCCCCCCCCCC(=O)*

`CC(=O)N[C@@H](CCCCN)C(=O)N[C@@H](CC(C)C)C(=O)N[C@@H](CCCCN)C(=O)NCCCC[C@H](NC(=O)[C@H](CCCCN)NC(=O)[C@H](CC(C)C)NC(=O)[C@H](CCCCN)NC(C)=O)C(=O)N[C@@H](CCCCN)C(=O)N[C@@H](CC(C)C)C(=O)N[C@@H](CCCCN)C(=O)NCCCC[C@H](NC(=O)[C@H](CCCCN)NC(=O)[C@H](CC(C)C)NC(=O)[C@H](CCCCN)NC(=O)[C@H](CCCCNC(=O)[C@H](CCCCN)NC(=O)[C@H](CC(C)C)NC(=O)[C@H](CCCCN)NC(C)=O)NC(=O)[C@H](CCCCN)NC(=O)[C@H](CC(C)C)NC(=O)[C@H](CCCCN)NC(C)=O)C(=O)N[C@@H](CC(C)C)C(=O)N[C@@H](CC(C)C)C(=O)N[C@@H](CCCCN)C(=O)N[C@@H](CC(C)C)C(=O)N[C@@H](CC(C)C)C(N)=O` [Ac-G2KLK-L2KL2, (Ac-KLK)4(KKLK)2KLLKLL-NH2] (I: Ac-KLKK([Lys-Leu-Lys-Ac])KLKKLLKLL-NH2 / II: Ac-KLKK([Lys-Leu-Lys-Ac])KLK; amide I:8-II:C): the MBC came to 128 µg/mL (≈ 38 µM) against S. aureus ATCC 29213; 16 µg/mL (≈ 4.75 µM) with B. subtilis ATCC 6051; 128 µg/mL (≈ 38 µM) against E. faecium ATCC 35667; 16 µg/mL (≈ 4.75 µM) with E. coli ATCC 25822; 16 µg/mL (≈ 4.75 µM) in the assay on P. aeruginosa ATCC 27853. For the same compound, the MIC against S. aureus ATCC 29213 is 64 µg/mL (≈ 19 µM); in the assay with B. subtilis ATCC 6051 it was 8 to 16 µg/mL; with E. faecium ATCC 35667 it was 64 µg/mL (≈ 19 µM); in the assay with E. coli ATCC 25822, 8 to 16 µg/mL; in the assay on P. aeruginosa ATCC 27853 it was 8 to 16 µg/mL; in assay [1] (methicillin-resistant ) isolates) it was 128 µg/mL (≈ 38 µM).

With `CC1(C)S[C@@H]2[C@H](NC(=O)[C@H](N)c3ccccc3)C(=O)N2[C@H]1C(=O)O` [Amp, reference compound], the MIC in assay [1] (MRSA isolate 440260) is on record as more than 512 µg/mL; in assay [1] (MRSA isolate B11970), more than 512 µg/mL; in assay [1] (MRSA isolate B13178), more than 512 µg/mL; in assay [1] (MRSA isolate P10747), more than 512 µg/mL; in assay [1] (MRSA isolate P10781) it was more than 512 µg/mL; in assay [1] (MRSA isolate P11520), 512 µg/mL (≈ 1470 µM). Further, the MIC in assay [1] (MRSA isolate S18155), in assay [1] (MRSA isolate S18970), in assay [1] (MRSA isolate S37938) and in assay [1] (MRSA isolate T5683) was more than 512 µg/mL in each case.

For the compound `CCCCCCCCCCCC(=O)N[C@@H](CCCCN)C(=O)N[C@@H](CC(C)C)C(=O)N[C@@H](CCCCN)C(=O)NCCCC[C@H](NC(=O)[C@H](CCCCN)NC(=O)[C@H](CC(C)C)NC(=O)[C@H](CCCCN)NC(=O)CCCCCCCCCCC)C(=O)N[C@@H](CCCCN)C(=O)N[C@@H](CC(C)C)C(=O)N[C@@H](CCCCN)C(=O)NCCCC[C@H](NC(=O)[C@H](CCCCN)NC(=O)[C@H](CC(C)C)NC(=O)[C@H](CCCCN)NC(=O)[C@H](CCCCNC(=O)[C@H](CCCCN)NC(=O)[C@H](CC(C)C)NC(=O)[C@H](CCCCN)NC(=O)CCCCCCCCCCC)NC(=O)[C@H](CCCCN)NC(=O)[C@H](CC(C)C)NC(=O)[C@H](CCCCN)NC(=O)CCCCCCCCCCC)C(=O)N[C@@H](CC(C)C)C(=O)N[C@@H](CC(C)C)C(=O)N[C@@H](CCCCN)C(=O)N[C@@H](CC(C)C)C(=O)N[C@@H](CC(C)C)C(N)=O` [Dd-G2KLK-L2KL2, (Dd-KLK)4(KKLK)2KLLKLL-NH2] (I: Lauroyl-KLKK([Lys-Leu-Lys-Lauroyl])KLKKLLKLL-NH2 / II: Lauroyl-KLKK([Lys-Leu-Lys-Lauroyl])KLK; amide I:8-II:C; N-terminus assumed), the MIC with S. aureus ATCC 29213, in the assay with B. subtilis ATCC 6051, in the assay with E. faecium ATCC 35667, against E. coli ATCC 25822 and against P. aeruginosa ATCC 27853 was more than 128 µg/mL each time.
